In publication PMC11767451, “Novel Approaches to Monitor Pharmacokinetics and Metabolism of Gemcitabine-Ibandronate Conjugate in Mice and Dogs” (Molecules, 2025):

Columns and labels:
[1] = Autosampler stability of extracted mouse plasma samples at 4 °C; assay type: physicochemical
Description: The stability of extracted dog and mouse plasma samples in the autosampler at 4 °C was established for 24 and 48 h. Except for GEM-IB, in mouse and dog plasma extracts, all analytes were within ±20% of the nominal enriched concentration for up to 48 h in the autosampler. GEM-IB was stable for up to 24 h under these conditions.
(§1) Method development and validation was conducted following applicable FDA guidelines for bioanalytical assays, as considered fit for purpose. Specificity. Endogenous interferences were excluded by analysis of blank plasma from 6 different individual lots of plasma. The lower limit of quantification (LLOQ) was determined as the lowest concentration consistently achieving an accuracy better than ±20% of the nominal concentration, with imprecision ≤20%. Predefined acceptance criteria. The performance of the assay was considered acceptable if intra- and inter-day imprecision (coefficient of variance, %CV) at each concentration was ≤15%, except at the LLOQ (≤20%). Intra- and inter-day accuracy had to be ±15% of the nominal value, except at the LLOQ (±20%). Calibration curves had to have a correlation coefficient (r) of 0.99 or better. Analytical recovery and imprecision. Intra- and inter-day analytical accuracy and imprecision were tested at least at four concentration levels depending on the LLOQ for each compound. Intra-day imprecision and accuracy were determined with n = 6 per QC level. Inter-day imprecision and accuracy were measured over 3 days, with six replicates for each QC concentration (n = 18). Extraction efficiency and matrix effect. Extraction efficiency for GEM-IB and metabolites was established by comparing the signals of the analytes after the extraction of QCs (n = 6/concentrations), with the signals of the extracted blank matrix spiked with the respective concentrations of analytes after the extraction procedure. The matrix effect was determined by comparing the analyte LC-MS/MS signal after spiking of the analyte into the extracted blank matrix (matrix from 6 different individual lots, analyte concentrations as for the QC samples) with the HPLC-MS/MS signal of the same amount of analyte in neat solution [25]. Carry-over. Carry-over was assessed by injecting blank buffer samples after analysis of the highest calibrators. Carry-over was considered insignificant if there was no signal at the relevant retention times exceeding 20% of the analyte signals at the LLOQ. Stability. QC samples were freshly prepared. One set was extracted and was analyzed immediately to determine baseline signals. Analyte stability in plasma was evaluated at two QC concentration levels (n = 3/concentration level) under different conditions: 1, 2, and 24 h at room temperature and at 4 °C. In addition, stability after extraction was determined after 24 h and 48 h at 4 °C in the autosampler and for up to 3 freeze (−70 °C)–thaw (ambient) cycles. Stability was assessed by comparing analyte concentrations with baseline (t0) concentrations. Stability was assumed when the results were within ±20% of the baseline concentrations. Long-term stability estimates were performed by re-extraction of samples used during the PK study (n = 6). Samples were initially analyzed for the PK assessment and were stored for 1.5 years (GEM-IB and IB) and 2.5 years (GEM, GEMMP, dFdU, and dFdU-MP) at <−70 °C prior to reanalysis. Stability was assessed by comparing analyte concentrations with the initial assessments. Stability was acceptable when the results were within ±20% of the baseline concentrations and the percent standard deviation (%-SD) was below 25%.

[2] = Stability in mouse plasma (accelerated, freeze-thaw, frozen PK samples); assay type: in vitro ADME; conditions: for %-ACC (% accuracy vs nominal): 3 freeze-thaw cycles (<−70 °C / bench); for %-ACC, frozen PK sample stability: mouse plasma PK samples re-extracted after 1.5 years at <−70 °C
Description: (§2) For stability testing, QC samples were prepared by spiking plasma with QC stock solutions. These stability samples were stored for the predetermined time periods before extraction (accelerated stability and freeze–thaw stability) or after extraction (autosampler stability) and were run with freshly prepared calibrator standards. For accelerated stability, samples were stored at 4 °C and at room temperature for 4 h and 24 h prior to sample extraction. […] Assay A compounds (GEM-IB and IB) were also tested at 1 h and 2 h exposed to 4 °C and at room temperature to evaluate for which duration GEM-IB is stable.
(§3) Freeze–thaw cycle stability was assessed by storing the stability samples overnight in the freezer (<−70 °C) and thawing them the next day on the bench. Once thawed, samples were placed back into the freezer. This was carried out for three freeze–thaw cycles for all compounds.
(§4) To assess the stability of study samples, PK samples were re-extracted after storage at <−70 °C for 1.5 years (see Supplementary Table S4).
as §1, with “signals.” for “signals. Analyte stability in plasma was evaluated at two QC concentration levels (n = 3/concentration level) under different conditions: 1, 2, and 24 h at room temperature and at 4 °C. In addition, stability after extraction was determined after 24 h and 48 h at 4 °C in the autosampler and for up to 3 freeze (−70 °C)–thaw (ambient) cycles. Stability was assessed by comparing analyte concentrations with baseline (t0) concentrations. Stability was assumed when the results were within ±20% of the baseline concentrations. Long-term stability estimates were performed by re-extraction of samples used during the PK study (n = 6). Samples were initially analyzed for the PK assessment and were stored for 1.5 years (GEM-IB and IB) and 2.5 years (GEM, GEMMP, dFdU, and dFdU-MP) at <−70 °C prior to reanalysis. Stability was assessed by comparing analyte concentrations with the initial assessments. Stability was acceptable when the results were within ±20% of the baseline concentrations and the percent standard deviation (%-SD) was below 25%.”

[3] = Stability in dog plasma (accelerated, freeze-thaw, frozen PK samples); assay type: in vitro ADME; conditions: for %-ACC (% accuracy vs nominal): 3 freeze-thaw cycles (<−70 °C / bench); for %-ACC, frozen PK sample stability: dog plasma PK samples re-extracted after 1.5 years at <−70 °C
Description: as §2, §3, §4
as §1, with “signals.” for “signals. Analyte stability in plasma was evaluated at two QC concentration levels (n = 3/concentration level) under different conditions: 1, 2, and 24 h at room temperature and at 4 °C. In addition, stability after extraction was determined after 24 h and 48 h at 4 °C in the autosampler and for up to 3 freeze (−70 °C)–thaw (ambient) cycles. Stability was assessed by comparing analyte concentrations with baseline (t0) concentrations. Stability was assumed when the results were within ±20% of the baseline concentrations. Long-term stability estimates were performed by re-extraction of samples used during the PK study (n = 6). Samples were initially analyzed for the PK assessment and were stored for 1.5 years (GEM-IB and IB) and 2.5 years (GEM, GEMMP, dFdU, and dFdU-MP) at <−70 °C prior to reanalysis. Stability was assessed by comparing analyte concentrations with the initial assessments. Stability was acceptable when the results were within ±20% of the baseline concentrations and the percent standard deviation (%-SD) was below 25%.”

[4] = mouse plasma, 2 hours 4°C / on ice (IB and GEM-IB, footnote)
[5] = mouse plasma, 2 hours RT (IB and GEM-IB, footnote)
[6] = dog plasma, 2 hours 4°C (IB and GEM-IB, footnote)
[7] = dog plasma, 2 hours RT (IB and GEM-IB, footnote)

%-ACC (% accuracy vs nominal) ([1]; 24 hours autosampler 4 °C)	%-ACC (% accuracy vs nominal) ([1]; 48 hours autosampler 4 °C)	%-ACC (% accuracy vs nominal) ([2]; mouse plasma)	%-ACC (percent mean accuracy vs nominal) [2, 4]	%-ACC (percent mean accuracy vs nominal) [2, 5]	%-ACC (percent mean accuracy vs nominal) ([2]; mouse plasma, 24 hours 4°C)	%-ACC (percent mean accuracy vs nominal) ([2]; mouse plasma, 24 hours RT)	%-ACC (% accuracy vs nominal) ([3]; dog plasma)	%-ACC (percent mean accuracy vs nominal) [3, 6]	%-ACC (percent mean accuracy vs nominal) [3, 7]	%-ACC (percent mean accuracy vs nominal) ([3]; dog plasma, 24 hours 4°C)	%-ACC (percent mean accuracy vs nominal) ([3]; dog plasma, 24 hours RT)	%-ACC, frozen PK sample stability [2]	%-ACC (percent mean accuracy vs nominal) ([2]; mouse plasma, 4 hours 4°C)	%-ACC (percent mean accuracy vs nominal) ([2]; mouse plasma, 4 hours RT)	%-ACC, frozen PK sample stability [3]	%-ACC (percent mean accuracy vs nominal) ([3]; dog plasma, 4 hours 4°C)	%-ACC (percent mean accuracy vs nominal) ([3]; dog plasma, 4 hours RT)	Structure (SMILES)	also measured
97.6%	98.6%	94.5%	97.0%	106.4%	99.7%	101.7%	106.5%	99.3%	101.0%	108.8%	118.5%							CCCCCN(C)CCC(O)(P(=O)(O)O)P(=O)(O)O [IB, ibandronate]	accelerated stability, result in words ([2]; mouse plasma, up to 24 h at 4 °C / on ice and room temperature): stable; freeze–thaw stability, result in words ([2]; one and two freeze–thaw cycles, matrix not stated, presumably mouse plasma): stable; accelerated stability, result in words ([3]; dog plasma, up to 24 h at 4 °C / on ice and room temperature): stable
103.9%	103.4%	109.5%			87.0%	85.2%	109.5%			105.3%	98.4%	failed the criteria	84.5%	83.8%	failed the criteria	100.5%	101.3%	O=c1ccn([C@@H]2O[C@H](CO)[C@@H](O)C2(F)F)c(=O)[nH]1 [dFdU, 2′,2′-difluoro-2′-deoxyuridine]	
102.4%	98.8%	87.7%			81.9%	81.5%	87.7%			85.2%	80.5%	failed the criteria	83.0%	80.5%	failed the criteria	84.2%	86.7%	O=c1ccn([C@@H]2O[C@H](COP(=O)(O)O)[C@@H](O)C2(F)F)c(=O)[nH]1 [dFdUMP, 2′,2′-difluoro-2′-deoxyuridine-5′-phosphate]	

Second part, the compound before the results:

Structure (SMILES)	%-ACC (% accuracy vs nominal) ([1]; 24 hours autosampler 4 °C)	%-ACC (% accuracy vs nominal) ([1]; 48 hours autosampler 4 °C)	%-ACC (% accuracy vs nominal) ([2]; mouse plasma)	%-ACC (percent mean accuracy vs nominal) [2, 4]	%-ACC (percent mean accuracy vs nominal) [2, 5]	%-ACC (percent mean accuracy vs nominal) ([2]; mouse plasma, 24 hours 4°C)	%-ACC (percent mean accuracy vs nominal) ([2]; mouse plasma, 24 hours RT)	%-ACC (% accuracy vs nominal) ([3]; dog plasma)	%-ACC (percent mean accuracy vs nominal) [3, 6]	%-ACC (percent mean accuracy vs nominal) [3, 7]	%-ACC (percent mean accuracy vs nominal) ([3]; dog plasma, 24 hours 4°C)	%-ACC (percent mean accuracy vs nominal) ([3]; dog plasma, 24 hours RT)	%-ACC, frozen PK sample stability [2]	%-ACC (percent mean accuracy vs nominal) ([2]; mouse plasma, 4 hours 4°C)	%-ACC (percent mean accuracy vs nominal) ([2]; mouse plasma, 4 hours RT)	%-ACC, frozen PK sample stability [3]	%-ACC (percent mean accuracy vs nominal) ([3]; dog plasma, 4 hours 4°C)	%-ACC (percent mean accuracy vs nominal) ([3]; dog plasma, 4 hours RT)	also measured
CCCCCN(C)CCC(O)(P(=O)(O)O)P(=O)(O)OP(=O)(O)OC[C@H]1O[C@@H](n2ccc(N)nc2=O)C(F)(F)[C@@H]1O (some centres unmarked) [GEM-IB]	96.8%	59.7%	16.9%	64.2%	31.0%	2.9%	0.0%	84.7%	99.3%	83.5%	83.6%	13.7%							percent of the nominal concentration ([2]; mouse plasma, 1 h on ice): 89.2% ± 7.0; time stable on ice ([2]; mouse plasma, on ice): up to 1 h; time stable on ice ([3]; dog plasma, on ice): up to 24 h
Nc1ccn([C@@H]2O[C@H](CO)[C@@H](O)C2(F)F)c(=O)n1 [GEM, gemcitabine]	102.0%	107.0%	103.4%			87.9%	91.0%	103.4%			94.8%	95.4%	94.2% ± 11.8	94.5%	89.3%	90.4% ± 23.9	102.7%	101.7%	
Nc1ccn([C@@H]2O[C@H](COP(=O)(O)O)[C@@H](O)C2(F)F)c(=O)n1 [GEMMP, gemcitabine-5′-phosphate]	96.9%	100.4%	92.4%			91.4%	88.1%	92.4%			88.1%	98.2%	failed the criteria	91.9%	87.9%	failed the criteria	89.5%	98.2%	
